The record followed here is US10689377B2 (Mirati Therapeutics, Inc., priority 2017, dated 2020).

Where only a bound is given, the exact number is not on record here.

Sequence of KRas G12C (P01116 1-188 isoform P01116-2 G12C): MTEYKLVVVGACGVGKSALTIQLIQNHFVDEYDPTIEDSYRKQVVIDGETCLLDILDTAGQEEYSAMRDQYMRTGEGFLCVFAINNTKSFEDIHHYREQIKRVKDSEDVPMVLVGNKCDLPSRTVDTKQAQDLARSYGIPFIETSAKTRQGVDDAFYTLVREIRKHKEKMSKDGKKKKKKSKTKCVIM

In the test the target is KRas G12C (Homo sapiens, UniProt P01116, G12C). The test can be described thus: Cellular inhibition of KRas G12C measured by Phospho-ERK in NCI-H358 cells. The note with it: pERK(Thr202/Tyr204) normalized with GAPDH, NCI-H358 cells, 3 hours; read-out: IC50. It is filed as cell-based. On the procedure:
Cells were plated in poly-D-Lysine coated 96-well plates at a concentration of 50,000 cells/well and allowed to attach for 8-12 hours. Diluted compounds were then added at a final concentration of 0.5% DMSO. After 3 hours, the medium was removed, 150 μL of 4% formaldehyde was added and the plates were incubated for 20 minutes. The plates were washed with PBS, and permeabilized using 150 μL of ice cold 100% methanol for 10 minutes. Non-specific antibody binding to the plates was blocked using 100 μL Licor Blocking Buffer (Li-Cor Biotechnology, Lincoln Nebr.) for 1 hour at room temperature. Positive control samples and samples lacking cells were parallel processed with test samples as standards.
The amount Phospho-ERK was determined using an antibody specific for the phosphorylated form of ERK and compared to the amount of GAPDH. […] The plates were incubated for 2 hours at room temperature. The plates were washed with PBS+0.05% Tween 20.
Secondary antibodies used to visualize primary antibodies were added as follows: Anti-rabbit-680 diluted 1:1000 and Anti-mouse-800 diluted 1:1000 in Licor Block+0.05% Tween 20 and incubated for 1 hour at room temperature. The plates were washed with PBS+0.05% Tween 20. A 100 μL aliquot of PBS was added to each well and the plates were read on a LICOR AERIUS plate reader.
The pERK(Thr202/Tyr204) signal was normalized with the GAPDH signal and percent of DMSO control values were calculated. IC50 values were generated using a 4 parameter fit of the dose response curve. Key: “A”≥0.0001-≤1 μM; “B”>1 μM and ND=not determined.
By IC50 is commonly meant the concentration that inhibits the measured activity by half. Take `C=CC(=O)N1CCN(c2nc(OCCN3CCN(C(C)=O)CC3)nc3c2CCN(c2cc(O)cc4ccccc24)C3)CC1` [Example 37, 1-(4-(2-(2-(4-acetylpiperazin-1-yl)ethoxy)-7-(3-hydroxynaphthalen-1-yl)-5,6,7,8-tetrahydropyrido[3,4-d]pyrimidin-4-yl)piperazin-1-yl)prop-2-en-1-one]: the half-maximal inhibitory concentration (IC50) is > 1000 nM.
Then `COC/C=C/C(=O)N1CCN(c2nc(OC[C@@H]3CCCN3C)nc3c2CCN(c2cccc(C)c2C)C3)C[C@@H]1CC#N` [Example 489, 2-((S)-4-(7-(2,3-dimethylphenyl)-2-(((S)-1-methylpyrrolidin-2-yl)methoxy)-5,6,7,8-tetrahydropyrido[3,4-d]pyrimidin-4-yl)-1-((E)-4-methoxybut-2-enoyl)piperazin-2-yl)acetonitrile], with 0.1 to 1000 nM.
The result for `C=CC(=O)N1CCN(c2nc(OC[C@@H]3CCCN3C)nc3c2CCN(c2cccc(F)c2C(F)(F)F)C3)CC1CC#N` (some centres unmarked) [Example 230] reads 0.1 to 1000 nM; that for `C=CC(=O)N1CCN(c2nc(OCC3CN(C)CCN3C)nc3c2CCN(c2cc(O)cc4ccccc24)C3)CC1` (centres unmarked) [Example 219, 1-(4-(2-((1,4-dimethylpiperazin-2-yl)methoxy)-7-(3-hydroxynaphthalen-1-yl)-5,6,7,8-tetrahydropyrido[3,4-d]pyrimidin-4-yl)piperazin-1-yl)prop-2-en-1-one], > 1000 nM; that for `C=CC(=O)N1CCN(c2nc(OC[C@@H]3CCCN3C)nc3c2CCN(c2cncc(Cl)c2C)C3)C[C@@H]1CC#N` [Example 387, 2-((S)-1-acryloyl-4-(7-(5-chloro-4-methylpyridin-3-yl)-2-(((S)-1-methylpyrrolidin-2-yl)methoxy)-5,6,7,8-tetrahydropyrido[3,4-d]pyrimidin-4-yl)piperazin-2-yl)acetonitrile], 0.1 to 1000 nM.
Then `C=CC(=O)N1CCN(c2nc(OCCN3CCC[C@H](F)C3)nc3c2CCN(c2cc(O)cc4ccccc24)C3)CC1` [Example 111, (S)-1-(4-(2-(2-(3-fluoropiperidin-1-yl)ethoxy)-7-(3-hydroxynaphthalen-1-yl)-5,6,7,8-tetrahydropyrido[3,4-d]pyrimidin-4-yl)piperazin-1-yl)prop-2-en-1-one], with 0.1 to 1000 nM; and `C=CC(=O)N1CCN(c2nc(O[C@H](C)CN(C)C)nc3c2CCN(c2cc(O)ccc2OC(F)(F)F)C3)CC1` [Example 78, (R)-1-(4-(2-((1-(dimethylamino)propan-2-yl)oxy)-7-(5-hydroxy-2-(trifluoromethoxy)phenyl)-5,6,7,8-tetrahydropyrido[3,4-d]pyrimidin-4-yl)piperazin-1-yl)prop-2-en-1-one], with > 1000 nM.
For the molecule `C=C(F)C(=O)N1CCN(c2nc(OC[C@@H]3CCCN3C)nc3c2CCN(c2cncc4ccc(F)cc24)C3)C[C@@H]1CC#N` [Example 609, 2-[(2S)-4-[7-(6-fluoro-4-isoquinolyl)-2-[[(2S)-1-methylpyrrolidin-2-yl]methoxy]-6,8-dihydro-5H-pyrido[3,4-d]pyrimidin-4-yl]-1-(2-fluoroprop-2-enoyl)piperazin-2-yl]acetonitrile], the IC50 lay within 0.1 to 1000 nM.
In the case of `C=CC(=O)N1CCN(c2nc(OCCCN3C[C@@H]4C[C@H]3CO4)nc3c2CCN(c2cc(O)cc4ccccc24)C3)CC1CC#N` (stereo partly drawn) [Example 153, 2-[4-[7-(3-hydroxy-1-naphthyl)-2-[3-[(1S,4S)-2-oxa-5-azabicyclo[2.2.1]heptan-5-yl]propoxy]-6,8-dihydro-5H-pyrido[3,4-d]pyrimidin-4-yl]-1-prop-2-enoyl-piperazin-2-yl]acetonitrile], the IC50 lay within 0.1 to 1000 nM.
The result for `C=CC(=O)N1CCN(c2nc(OC[C@@H]3CCCN3C)nc3c2CCN(c2cccc(F)c2OC)C3)CC1CC#N` (stereo partly drawn) [Example 308, 2-(1-acryloyl-4-(7-(3-fluoro-2-methoxyphenyl)-2-(((S)-1-methylpyrrolidin-2-yl)methoxy)-5,6,7,8-tetrahydropyrido[3,4-d]pyrimidin-4-yl)piperazin-2-yl)acetonitrile] reads 0.1 to 1000 nM.
Then `C=CC(=O)N1CCN(c2nc(OC[C@@H]3CCCN3C)nc3c2CCN(c2cccc(C)c2C)C3)CC1CC#N` (stereo partly drawn) [Example 228, 2-(1-acryloyl-4-(7-(2,3-dimethylphenyl)-2-(((S)-1-methylpyrrolidin-2-yl)methoxy)-5,6,7,8-tetrahydropyrido[3,4-d]pyrimidin-4-yl)piperazin-2-yl)acetonitrile], with 0.1 to 1000 nM.
`C=CC(=O)N1CCN(c2nc(OCCN3CCCCC3)nc3c2CCN(c2c(C)ccc4[nH]ncc24)C3)CC1` [Example 164]: the 50% inhibitory concentration (IC50) is > 1000 nM.
With `Cc1cc2[nH]ncc2c(N2CCc3c(nc(OC[C@@H]4CC(F)(F)CN4C)nc3N3CCN(C(=O)/C=C/CF)[C@@H](CC#N)C3)C2)c1C` [Example 614, 2-((S)-4-(2-(((S)-4,4-difluoro-1-methylpyrrolidin-2-yl)methoxy)-7-(5,6-dimethyl-1H-indazol-4-yl)-5,6,7,8-tetrahydropyrido[3,4-d]pyrimidin-4-yl)-1-((E)-4-fluorobut-2-enoyl)piperazin-2-yl)acetonitrile], the 50% inhibitory concentration (IC50) lay within 0.1 to 1000 nM.
The result for `C=CC(=O)N1CCN(c2nc(OC[C@@H]3CCCN3C)nc3c2CCN(c2nccc4ccccc24)C3)CC1CC#N` (stereo partly drawn) [Example 289, 2-[4-[7-(1-isoquinolyl)-2-[[(2S)-1-methylpyrrolidin-2-yl]methoxy]-6,8-dihydro-5H-pyrido[3,4-d]pyrimidin-4-yl]-1-prop-2-enoyl-piperazin-2-yl]acetonitrile] reads > 1000 nM.
Then `C=CC(=O)N1CCN(c2nc(OC[C@@H]3CCCN3C)nc3c2CCN(c2cccc4cccnc24)C3)CC1CC#N` (stereo partly drawn) [Example 247, 2-(1-acryloyl-4-(2-(((S)-1-methylpyrrolidin-2-yl)methoxy)-7-(quinolin-8-yl)-5,6,7,8-tetrahydropyrido[3,4-d]pyrimidin-4-yl)piperazin-2-yl)acetonitrile], with > 1000 nM; and `C=CC(=O)N1CCN(c2nc(OCCN(C)C)nc3c2CCN(c2cc(O)cc4ccccc24)C3)CC1` [Example 9, 1-(4-(2-(2-(dimethylamino)ethoxy)-7-(3-hydroxynaphthalen-1-yl)-5,6,7,8-tetrahydropyrido[3,4-d]pyrimidin-4-yl)piperazin-1-yl)prop-2-en-1-one], with > 1000 nM.
The result for `Cc1cccc2cccc(N3CCc4c(nc(OC[C@H]5C[C@@H](F)CN5C)nc4N4CCN(C(=O)/C=C/CO)[C@@H](CC#N)C4)C3)c12` [Example 522, 2-((S)-4-(2-(((2R,4R)-4-fluoro-1-methylpyrrolidin-2-yl)methoxy)-7-(8-methylnaphthalen-1-yl)-5,6,7,8-tetrahydropyrido[3,4-d]pyrimidin-4-yl)-1-((E)-4-hydroxybut-2-enoyl)piperazin-2-yl)acetonitrile] reads 0.1 to 1000 nM; that for `C=CC(=O)N1CCN(c2nc(OCC3CCN(C)C3)nc3c2CCN(c2c(C)ccc4[nH]ncc24)C3)CC1` (centres unmarked) [Example 161, 1-[4-[7-(5-methyl-1H-indazol-4-yl)-2-[(1-methylpyrrolidin-3-yl)methoxy]-6,8-dihydro-5H-pyrido[3,4-d]pyrimidin-4-yl]piperazin-1-yl]prop-2-en-1-one], > 1000 nM; that for `Cc1cccc(N2CCc3c(nc(OC[C@@H]4CCCN4C)nc3N3CCN(C(=O)/C=C/CN4CCC(F)C4)[C@@H](CC#N)C3)C2)c1C` (stereo partly drawn) [Example 476, 2-[(2S)-4-[7-(2,3-dimethylphenyl)-2-[[(2S)-1-methylpyrrolidin-2-yl]methoxy]-6,8-dihydro-5H-pyrido[3,4-d]pyrimidin-4-yl]-1-[(E)-4-(3-fluoropyrrolidin-1-yl)but-2-enoyl]piperazin-2-yl]acetonitrile], 0.1 to 1000 nM.
As for `C=CC(=O)N1CCN(c2nc(OCCN3CCC(OC)CC3)nc3c2CCN(c2cc(O)cc4ccccc24)C3)CC1` [Example 108, 1-(4-(7-(3-hydroxynaphthalen-1-yl)-2-(2-(4-methoxypiperidin-1-yl)ethoxy)-5,6,7,8-tetrahydropyrido[3,4-d]pyrimidin-4-yl)piperazin-1-yl)prop-2-en-1-one], the IC50 fell in the range of 0.1 to 1000 nM.
As to `C=CC(=O)N1CCN(c2nc(O[C@@H](C)[C@@H]3CCCN3C)nc3c2CCN(c2cc(O)cc4ccccc24)C3)CC1` [Example 130, 1-(4-(7-(3-hydroxynaphthalen-1-yl)-2-((S)-1-((S)-1-methylpyrrolidin-2-yl)ethoxy)-5,6,7,8-tetrahydropyrido[3,4-d]pyrimidin-4-yl)piperazin-1-yl)prop-2-en-1-one], the IC50 lay within 0.1 to 1000 nM.
Then `C=CC(=O)N1CCN(c2ncnc3c2CC(C)N(c2cc(O)cc4ccccc24)C3)CC1` (centres unmarked) [Example 6, 1-(4-(7-(3-hydroxynaphthalen-1-yl)-6-methyl-5,6,7,8-tetrahydropyrido[3,4-d]pyrimidin-4-yl)piperazin-1-yl)prop-2-en-1-one], with > 1000 nM; and `C=CC(=O)N1CCN(c2nc(OCCCN3CCOCC3)nc3c2CCN(c2cc(O)cc4ccccc24)C3)C(CO)C1` (centres unmarked) [Example 168, 1-(3-(hydroxymethyl)-4-(7-(3-hydroxynaphthalen-1-yl)-2-(3-morpholinopropoxy)-5,6,7,8-tetrahydropyrido[3,4-d]pyrimidin-4-yl)piperazin-1-yl)prop-2-en-1-one], with > 1000 nM.
